We go through two compounds from US11980600B2, “Diagnostic assay and treatment for preeclampsia” (MIRZYME THERAPEUTICS LIMITED, priority 2015, dated 2024).

Assay [1] relates to Ad-sFlt-1 injected Hmox1−/− mice. Put plainly: Co-treatment rescue study of renal injury in non-pregnant Hmox1-/- mice injected with Ad-sFlt-1. The class given is in vivo. To be noted: for proteinuria (24 h urinary albumin:creatinine ratio) / urinary KIM-1 levels: high sFlt-1; for renal glomerulosclerosis and mesangiolysis (glomerular histology): high sFlt-1, nor-NOHA daily i.p., L-arginine 25 g/L in drinking water. As for the experimental part:
Non-pregnant studies were carried out twelve-week-old Hmox1^−/− mice and Hmox1^+/+ mice. Animals were injected with 1×10^9 PFU of Ad-sFlt-1 or Ad-CMV (control) adenovirus by injection into the tail vein. Nine days after adenovirus administration, mice were individually placed in metabolic cages for 24 hours. Body weight, food and water intake, and urine volume were measured. Following urine measurements, blood sampling was undertaken on day 10, the animals were euthanized, and their kidneys and livers were collected for further analysis. Co-treatment rescue studies using arginase inhibitor and/or L-arginine supplementation were also undertaken in non-pregnant Hmox1^−/− mice and Hmox1^+/+ animals. Mice were injected intraperitoneally with nor-NOHA (Bachem, Bubendorf, Switzerland) daily. L-arginine (Sigma-Aldrich, St. Louis, MO) was given to the animals by supplementing the drinking water with 25 g/L one week before the Ad-sFlt-1 adenovirus injection and until the end of the study.
(§1) Urinary albumin was determined using Albuwell-M kits (Exocell Inc, Philadelphia, PA). Enzyme-linked immunosorbent assay kits for human and murine sFlt-1, KIM-1, and PIGF were obtained from R&D Systems and performed according to the manufacturer's specifications.
Human and murine placental tissues were prepared for immunohistochemistry as previously described. Immunohistochemistry was performed by using antibodies to Arginase-1, Ass1, Asl, and 3-nitrotyrosine. The following antibodies were used: (1) anti-arginase-1 antibody (1:50, Genetex); (2) anti-argininosuccinate synthase (1:100), Abcam); (3) anti-argininosuccinate lyase (1:100, Abcam) and (4) anti-3-Nitrotyrosine (1:100 dilution, Abcam). Sections from mouse kidneys or human placental biopsies were rehydrated, blocked with the use of normal serum, and incubated with primary antibody for 2 hours at room temperature. Visualization was performed by using a Vectastain ABC kit, with DAB. Slides were counterstained with hematoxylin. The staining was analysed by using a Nikon inverted microscope and Image Pro-Plus image analysis software.

Assay [2] deals with Ad-sFlt-1 injected Hmox1+/− pregnant mice. Put plainly: Rescue of preeclampsia phenotype in timed pregnant Hmox1+/- mice injected with Ad-sFlt-1. The format is in vivo. To be noted: for signs of preeclampsia overall: Ad-sFlt-1, agent given alone; for average fetal weight / fetal resorption rate / mean arterial blood pressure (MAP) / hypertension / proteinuria (24 h urinary albumin:creatinine ratio): Ad-sFlt-1, day 18 of gestation. As for the experimental part:
Pregnant mice studies were carried out ten to twelve-week-old Hmox1^+/− mice and Hmox1^+/+ mice or wild-type C57/B16 mice. The first day of pregnancy (E0.5) was defined by the presence of a vaginal plug the following morning. On E10.5 (second trimester) pregnant mice were injected with 1×10^9 PFU of Ad-sFlt-1 or Ad-CMV (control) adenovirus by injection into the tail vein. For RUPP study, on day 13 of gestation, time pregnant C57/Bl6 mice were anesthetized. An incision was made down the midline of the body and the abdominal aorta was isolated. The vessel was then restricted with 7.0 suture tied around a blunt needle (approximate diameter of 1 mm^2) placed on the aorta. The needle was then removed. Right ovarian artery was restricted with 7.0 suture. The incisions were closed and the mice were allowed to recover for five days. For the low-dose sFlt-1 experiment, 1×10^8 PFU of adenovirus expressing sFlt-1 was used. On E17.5 mice were individually placed in metabolic cages for 24 hours and arterial blood pressure was measured at E18.5 as described previously (Wang et al. 2013). In brief, mice were anesthetized by using a ketamine/xylazine cocktail, and the carotid artery was isolated and cannulated with a Millar 1-French Mikro-Tip pressure catheter connected to a pressure transducer (ADInstruments Ltd, Oxford, UK). After 30 minutes of blood pressure stabilization, arterial pressure was recorded and averaged over an additional 10-minute period. Following measurements, blood sampling was undertaken, the animals were euthanized, and their kidneys, livers, and placentas were collected. The live fetuses and placentas were counted and weighed. All experimentation was conducted in accordance with the United Kingdom Animals (Scientific Procedures) Act, 1986 with the use of procedures approved by the University Ethical Review Committee.
as §1

Take `N=C(N)NCCC[C@H](N)C(=O)O` [L-arginine]: in assay [1], the “proteinuria (24 h urinary albumin:creatinine ratio)” value is listed as “improvements were absent”; the “urinary KIM-1 levels” value is reported as “improvements were absent”; the “renal glomerulosclerosis and mesangiolysis (glomerular histology)” value is given as “improvements were absent”. For the same compound, in assay [2], the “signs of preeclampsia overall” value is “failed to abolish all signs of preeclampsia”, the average fetal weight entry was “no significant improvement”, the fetal resorption rate entry is given as “no significant improvement” and the “mean arterial blood pressure (MAP) / hypertension” value is given as “significantly reduced”. The “proteinuria (24 h urinary albumin:creatinine ratio)” value in assay [2] is listed as “no significant improvements”.
On to `N=C(NO)NCC[C@H](N)C(=O)O` [nor-NOHA, N-w-hydroxy-L-nor-arginine], for which, in assay [1], the “proteinuria (24 h urinary albumin:creatinine ratio)” value was “improvements were absent”; the “urinary KIM-1 levels” value is “improvements were absent”; the “renal glomerulosclerosis and mesangiolysis (glomerular histology)” value is “improvements were absent”. In assay [2], the “signs of preeclampsia overall” value is “failed to abolish all signs of preeclampsia”, the average fetal weight result was “no significant effect”, the fetal resorption rate entry is “reduced” and the “mean arterial blood pressure (MAP) / hypertension” value is “no significant effect”. In addition, in assay [2], the “proteinuria (24 h urinary albumin:creatinine ratio)” value is listed as “no significant improvements”.
